Drawing on ChEMBL document CHEMBL5528009, “Benzothiozinone derivatives with anti-tubercular Activity-Further side chain investigation” (Eur J Med Chem, 2024), this text covers MIC for five compounds.

Where only a bound is given, the exact number is not on record here.

Test [1] concerns Mycobacterium tuberculosis. Briefly: Antitubercular activity against multidrug-resistant Mycobacterium tuberculosis clinical isolate 16,121. It counts as functional.
For test [2], the system named is Mycobacterium tuberculosis. Briefly: Antitubercular activity against multidrug-resistant Mycobacterium tuberculosis clinical isolate 16,030. It counts as functional.

For `NNC(=O)c1ccncc1` [ISONIAZID], the MIC in test [1] and in test [2] was over 10 µg/mL throughout.

Regarding `CN(CC#CC1CCCCC1)c1nc(=O)c2cc(C(F)(F)F)cc([N+](=O)[O-])c2s1`, the MIC in test [1] and in test [2] was under 0.016 µg/mL in each case.

Turning to `CO[C@H]1/C=C/O[C@@]2(C)Oc3c(C)c(O)c4c(O)c(c(/C=N/N5CCN(C)CC5)c(O)c4c3C2=O)NC(=O)/C(C)=C\C=C\[C@H](C)[C@H](O)[C@@H](C)[C@@H](O)[C@@H](C)[C@H](OC(C)=O)[C@@H]1C` [RIFAMPIN], the MIC in test [1] and in test [2] was over 10 µg/mL in each case.

On to `CN(CC#Cc1ccccc1)c1nc(=O)c2cc(C(F)(F)F)cc([N+](=O)[O-])c2s1`, for which the MIC in test [1] and in test [2] was under 0.016 µg/mL in each case.

Consider `CN(CC#Cc1cscn1)c1nc(=O)c2cc(C(F)(F)F)cc([N+](=O)[O-])c2s1`, for which the MIC in test [1] and in test [2] was under 0.016 µg/mL throughout.
